According to the supplement of paper PMC8149375:
“And” between values parts separate entries of the source, which are not always exact repeats. Identical values can stand only once.

Assays:
Settings in all cases: treatment: drug alone; 5 days
769-P [1] = assay: GI50, drug alone; higher = less potent
Protocol: (§1)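 Primary HTS: 8 RCC cell lines treated with 8 doses (up to 10 uM) of each library drug alone for 5 days; viability read by CellTiter-Glo and normalised to DMSO. GI50 was fitted with XLfit (4-parameter), AUC is the area under the dose-response curve, and minimum viability is the lowest fraction of DMSO viability across doses.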

ACHN [2] = assay: GI50, drug alone; higher = less potent
Protocol: as §1

786-O [3] = assay: GI50, drug alone; higher = less potent
Protocol: as §1

CAKI-1 [4] = assay: GI50, drug alone; higher = less potent
Protocol: as §1

SN12C [5] = assay: GI50, drug alone; higher = less potent
Protocol: as §1

TK-10 [6] = assay: GI50, drug alone; higher = less potent
Protocol: as §1

UO-31 [7] = assay: GI50, drug alone; higher = less potent
Protocol: as §1

A498 [8] = assay: GI50, drug alone; higher = less potent
Protocol: as §1

769-P [9] = assay: minimum viability across doses, drug alone, relative to DMSO (fraction); higher = less growth inhibition
Protocol: as §1

ACHN [10] = assay: as above
Protocol: as §1

786-O [11] = assay: as above
Protocol: as §1

CAKI-1 [12] = assay: as above
Protocol: as §1

SN12C [13] = assay: as above
Protocol: as §1

TK-10 [14] = assay: as above
Protocol: as §1

UO-31 [15] = assay: as above
Protocol: as §1

A498 [16] = assay: as above
Protocol: as §1

769-P [17] = assay: AUC of dose-response viability curve, drug alone (arbitrary (AUC of normalised viability)); higher = less growth inhibition
Protocol: as §1

ACHN [18] = assay: as above
Protocol: as §1

786-O [19] = assay: as above
Protocol: as §1

CAKI-1 [20] = assay: as above
Protocol: as §1

SN12C [21] = assay: as above
Protocol: as §1

TK-10 [22] = assay: as above
Protocol: as §1

UO-31 [23] = assay: as above
Protocol: as §1

A498 [24] = assay: as above
Protocol: as §1

Compound | GI50, drug alone (769-P [1]) | GI50, drug alone (ACHN [2]) | GI50, drug alone (786-O [3]) | GI50, drug alone (CAKI-1 [4]) | GI50, drug alone (SN12C [5]) | GI50, drug alone (TK-10 [6]) | GI50, drug alone (UO-31 [7]) | GI50, drug alone (A498 [8]) | minimum viability across doses (769-P [9]) | minimum viability across doses (ACHN [10]) | minimum viability across doses (786-O [11]) | minimum viability across doses (CAKI-1 [12]) | minimum viability across doses (SN12C [13]) | minimum viability across doses (TK-10 [14]) | minimum viability across doses (UO-31 [15]) | minimum viability across doses (A498 [16]) | AUC of dose-response viability curve (769-P [17]) | AUC of dose-response viability curve (ACHN [18]) | AUC of dose-response viability curve (786-O [19]) | AUC of dose-response viability curve (CAKI-1 [20]) | AUC of dose-response viability curve (SN12C [21]) | AUC of dose-response viability curve (TK-10 [22]) | AUC of dose-response viability curve (UO-31 [23]) | AUC of dose-response viability curve (A498 [24])
O=C1NC(=O)/C(=C/c2ccc(-c3ccc(F)cc3O)o2)S1 | > 10000 nM | > 10000 nM | > 10000 nM | > 10000 nM | > 10000 nM | > 10000 nM | 4730 nM | > 10000 nM | 0.905 | 0.872 | 0.694 | 0.955 | 0.917 | 0.853 | 0.244 | 1.21 | 3.41 | 3.49 | 2.68 | 3.51 | 3.48 | 3.25 | 4.02 | 4.49
N#Cc1c(O)c2c(-c3ccc(-c4ccccc4O)cc3)csc2[nH]c1=O | > 10000 nM | > 10000 nM | > 10000 nM | > 10000 nM | > 10000 nM | > 10000 nM | > 10000 nM | > 10000 nM | 0.963 | 0.904 | 0.823 | 0.977 | 0.868 | 0.929 | 0.948 | 0.9 | 3.7 | 3.45 | 3.47 | 3.65 | 3.39 | 3.6 | 4.14 | 3.53
O=C1NC(=O)/C(=C/c2ccc3nccnc3c2)S1 | > 10000 nM | > 10000 nM | > 10000 nM | > 10000 nM | > 10000 nM | > 10000 nM | > 10000 nM | > 10000 nM | 0.891 | 0.837 | 0.651 | 0.648 | 0.805 | 0.802 | 0.902 | 0.869 | 3.39 | 3.28 | 3.04 | 3.43 | 3.19 | 3.3 | 4.01 | 3.39
C[C@@H]1COC(Nc2ccc3ncnc(Nc4ccc(OCc5nccs5)c(Cl)c4)c3c2)=N1 | 4050 nM | 1880 nM | > 10000 nM | 9750 nM | > 10000 nM | 2210 nM | > 10000 nM | > 10000 nM | 0.431 | 0.433 | 0.5 | 0.478 | 0.76 | 0.369 | 0.919 | 1.1 | 2.72 | 2.8 | 2.6 | 3.13 | 3.25 | 2.46 | 4.74 | 4.91
O=C1NC(=O)/C(=C/c2ccc3c(c2)OC(F)(F)O3)S1 | > 10000 nM | > 10000 nM | > 10000 nM | > 10000 nM | > 10000 nM | > 10000 nM | > 10000 nM | > 10000 nM | 0.947 | 0.93 | 0.474 | 0.98 | 0.775 | 0.858 | 0.92 | 0.83 | 3.5 | 3.46 | 2.35 | 3.54 | 3.07 | 3.24 | 4.4 | 3.81
Cc1cnc(Nc2ccc(N3CCN(C)CC3)cc2)nc1Nc1cccc(S(=O)(=O)NC(C)(C)C)c1 | 3640 nM and 1860 nM | 394 nM and 247 nM | 1630 nM and 1100 nM | 523 nM and 494 nM | 2190 nM and 1470 nM | 596 nM and 364 nM | 3060 nM and 2230 nM | 8980 nM and 9200 nM | 0.0716 and 0.0287 | 0.00241 and 0.0043 | 0.011 and 0.00951 |  |  | 0.00169 and 0.00288 | 0.0126 and 0.00902 | 0.19 and 0.161 | 2.9 and 2.62 | 2.1 and 1.82 | 2.78 and 2.6 | 2.2 and 2.24 | 2.78 and 2.61 | 2.15 and 1.95 | 3.84 and 3.52 | 3.84 and 4.19
Cc1n[nH]c2ccc(-c3cncc(OC[C@@H](N)Cc4ccccc4)c3)cc12 | 2010 nM | 667 nM | 879 nM | 1220 nM | 1430 nM | 1390 nM | 887 nM | 1160 nM | 0.0141 | 0.00528 | 0.00649 | 0.073 | 0.00861 | 0.141 | 0.00834 | 0.0113 | 2.74 | 2.28 | 2.19 | 2.6 | 2.55 | 2.54 | 2.35 | 2.46
Cc1ccc(C(=O)Nc2ccc(CN3CCN(C)CC3)c(C(F)(F)F)c2)cc1C#Cc1cnc2cccnn12 | 2210 nM | 327 nM | 936 nM | 486 nM | 942 nM | 531 nM | 1250 nM | 2090 nM |  |  |  |  |  |  |  |  |  |  |  |  |  |  |  | 
CN(C[C@@H]1COCCO1)S(=O)(=O)Nc1ccc2ccc3ncc(-c4cnn(C)c4)cc3c(=O)c2c1 [MK-2461] | > 10000 nM | 1720 nM | > 10000 nM | 1120 nM | > 10000 nM | > 10000 nM | > 10000 nM | > 10000 nM | 0.772 | 0.217 | 0.653 | 0.0916 | 0.727 | 0.649 | 1.03 | 0.968 | 3.6 | 2.6 | 5.52 | 2.48 | 3.09 | 2.8 |  | 7.41
Nc1ccc(-c2ccc3ncc4ccc(=O)n(-c5cccc(C(F)(F)F)c5)c4c3c2)cn1 [Torin 2] | 39.8 nM | 9.67 nM | 6.39 nM | 32.2 nM | 20.3 nM |  | 12 nM | 35.4 nM | 0.0587 | 0.0442 | 0.00282 | 0.0161 | 0.0362 | 0.0151 | 0.0112 | 0.0258 | 1.2 | 0.678 | 0.512 | 1.07 | 1.02 | 0.982 | 0.591 | 1.25
